Experimental data reported in patent US12023348B2, “EGR1 targeting molecules for the treatment of inflammatory and hyperproliferative conditions” (The Medical Research, Infrastructure and Health Services …, priority 2015, dated 2024).

Tests used:
SAMD9 [1] = experiment: SAMD9 RNA expression by qRT-PCR in primary fibroblasts; assay type: cell-based, human; settings: for SAMD9 expression in primary fibroblasts: 5 μM, 24 hours, qRT-PCR vs DMSO (FIG. 1C); for Dose and time dependence of SAMD9 up-regulation: primary fibroblasts, 5 μM over 72 hours, 1, 2, 5, 10 μM (FIGS. 2A-B)
Procedure: Primary fibroblasts were isolated from human adult skin and were grown in High Glucose DMEM, 10% Fetal Bovine Serum, L-glutamine and Pen-Strep. Medium was changed every 2-3 days. Cells were used at passage 2-3.
(§1) Of note, when cells were incubated with CaCx and ApDx (NCI, MA USA), they were grown in the appropriate medium with 0.1% FCS only.
(§2) RNA was extracted from cell cultures using an RNA extraction kit (Roche Diagnostics, Mahheim, Germany). cDNA was synthesized from 500 ng of total RNA using the Verso cDNA kit (Thermo Fisher Scientific, Waltham, MA, USA). cDNA PCR amplification was carried out using the Fast SYBR Green Master Mix in a StepOnePlus™ Real-Time PCR System (Applied Biosystems, Foster City, CA, USA) with gene-specific intron-crossing oligonucleotide pairs listed in Table 1 (below). For quantification, standard curves were obtained using serially diluted cDNA amplified in the same qRT-PCR run. The melting temperature (Tm) of the amplified products was measured to confirm the specificity of the reaction conditions. Cycling conditions were as follows: 95° C. for 10 minutes, 95° C. for 10 seconds, 62° C. for 15 seconds, and 72° C. for 25 seconds for a total of 40 cycles. Each sample was analyzed in triplicate. mRNA expression level for target gene was normalized to GAPDH. The results are based the amount of target, normalized to an endogenous reference (IACTB) and relative to a calibrator, as calculated by 2-ΔΔCT. All samples were run in triplicate. The expression levels of target genes were expressed as mRNA relative units.
(§3) The potential ability of these 31 molecules to induce SAMD9 expression in cell cultures was then scrutinized.

[2] = system: imiquimod-induced psoriasiform dermatitis; experiment: Imiquimod-induced psoriasiform dermatitis in mice; assay type: in vivo; settings: for Overt toxicity / Inflammatory infiltrate / Epidermal thickness / Index of proliferation (Ki67): i.p. five times a week, CaCx 22.5 mg/kg or ApDx 7.5 mg/kg; for Overt toxicity: 5 days; for Inflammatory infiltrate: biopsies after 5 days; for Epidermal thickness / Index of proliferation (Ki67): biopsies after 5 days (FIG. 5A); for EGR1 RNA levels in treated skin: quantitative PCR vs vehicle group (FIG. 5B); for EGR1 RNA levels in treated skin / IL-33 RNA levels in treated skin: CaCx 22.5 mg/kg or ApDx 7.5 mg/kg i.p.; for IL-33 RNA levels in treated skin: quantitative PCR vs vehicle group (FIG. 5C)
Procedure: Balb/c mice (Harlan Laboratories Ltd, Jerusalem, Israel), 9 weeks of age, were maintained in a pathogen-free animal facility. Animal care and research protocols had been approved by the institutional committee for animal use. Imiquimod 5% (Perrigo, Israel) was used as topical treatment for the mice on their upper backs. Mice were injected i.p. five times a week with DMSO or 7.5-22.5 mg/kg of ApDx and CaCx, respectively (NCI). 10% DMSO in […] was used as a vehicle control.
Formaldehyde-fixed 5-μm paraffin-embedded sections from skin biopsies were deparaffinized and treated with 3% H2O2 in methanol for 15 minutes at room temperature, warmed in a microwave oven in citrate buffer in a pressure cooker for 25 minutes, and stained with a monoclonal anti-Ki67 antibody (Thermo Scientific) for 1 hour at room temperature. Following 3 washings (10 minutes each) with phosphate-buffered saline (PBS), the antibodies were imaged using the ABC technique (Zymed Laboratories, South San Francisco, CA) and the slides were counterstained with hematoxylin.
Epidermal thickness was defined as the distance between the granular layer and the basement membrane and was measured at 10 randomly selected locations for each biopsy using NIS-Elements BR 3.2 software (Nikon, NY USA). An image was taken and was manually measured in the software by selecting an upper and lower border, as defined above. The distance was measured in microns.
as §2
This hypothesis was tested in a murine model in which psoriasiform dermatitis was induced using imiquimod [as previously described in Tortola, L. et al. (2012) J Clin Invest 122, 3965-76].
Balb/c mice were treated topically with imiquimod and were injected five times a week i.p. with either the vehicle, 22.5 mg/kg of CaCx or 7.5 mg/kg of ApDx.
After 5 days, biopsies were obtained from the treated skin and stained for hematoxylin and eosin as well as for Ki67 (FIGS. 4A-F), as a surrogate marker for cellular proliferation.

SAMD9 [3] = experiment: SAMD9 RNA expression by qRT-PCR in HeLa cells; assay type: cell-based, human; settings: for SAMD9 expression in HeLa cells: 5 μM, 24 hours, qRT-PCR vs DMSO (FIG. 1C); for SAMD9 expression fold change in HeLa cells: fold increase in RNA gene expression vs cells treated with vehicle only
Procedure: HeLa cells were cultured in DMEM 4.5 g/l glucose medium containing 10% FCS, 1% L-glutamine and 1% penicillin and streptomycin (Biological Industries) and grown at 37° C. and 5% CO2.
as §1, §2, §3

## Cc1c2ccnc(C(N)=O)c2c(C)c2c1[nH]c1ccccc12.Cl [Compound 335142, 6H-Pyrido[4,3-b]carbazole-1-carboxamide, 5,11-dimethyl-, monohydrochloride]
SAMD9 [1]
  SAMD9 expression in primary fibroblasts: significantly induce
  Dose and time dependence of SAMD9 up-regulation: both dose and time dependent
[2]
  Overt toxicity: No overt toxicity
  Inflammatory infiltrate: did not affect
  Epidermal thickness: decrease
  Index of proliferation (Ki67): decrease
  EGR1 RNA levels in treated skin: significant decrease
  IL-33 RNA levels in treated skin: significant decrease
SAMD9 [3]
  SAMD9 expression in HeLa cells: significantly induce
  SAMD9 expression fold change in HeLa cells: 6.44 fold

## CCCN1c2ccc(N)cc2S(=O)(=O)c2cc(Cl)cc(Cl)c21 [Compound 629971, 7,9-dichloro-5,5-dioxo-10-propylphenothiazin-3-amine]
SAMD9 [1]
  SAMD9 expression in primary fibroblasts: significantly induce
  Dose and time dependence of SAMD9 up-regulation: both dose and time dependent
[2]
  Overt toxicity: No overt toxicity
  Inflammatory infiltrate: did not affect
  Epidermal thickness: decrease
  Index of proliferation (Ki67): decrease
  EGR1 RNA levels in treated skin: significant decrease
  IL-33 RNA levels in treated skin: significant decrease
SAMD9 [3]
  SAMD9 expression in HeLa cells: significantly induce
  SAMD9 expression fold change in HeLa cells: 20.5 fold
